According to patent publication US20120059038A1, “[…]” (Astellas Pharma Inc., priority 2009, published 2012):
Converted amounts (≈) assume the structure as drawn.

Columns and labels:
Complex III = Complex III inhibitory activity, ubiquinol-cytochrome c reductase assay using isolated mitochondrial fraction; assay type: biochemical; settings: mitochondrial fraction of Trichophyton mentagrophytes FP2103; kind of value (IC50 or other) not stated
Description: A medium (0.1% glucose, 0.2% bacto tryptone, 0.2% K2HPO4, 0.005% MgSO4.7H2O and 0.005% CaC12.2H2O) was poured into an Erlenmeyer flask and sterilized by autoclaving. Conidiophores of Trichophyton mentagrophytes FP2103 were inoculated into the medium, and cultured at 30° C. for 40 hours while shaking on a rotary shaker. The fungus was collected from the cultural solution and dipped in a cell wall lysis enzyme solution {1 M KC1, 25 mM CaC12.2H2O, 10 mM MgC12.6H2O, 5 mg/mL zymolyase-100T (Seikagaku Corporation), 1 mg/mL chitinase (Sigma) and 5 mg/mL drieselase (Sigma)}, and the resulting mixture was stirred at 30° C. for 4 hours. The enzyme treatment solution was filtered through glass funnel filled with gauze to obtain protoplast. A mitochondrial fraction was isolated from the protoplast by using a Mitochondria Isolation Kit (BioChain Institute, Inc.). The Complex III inhibitory activity was measured in the ubiquinol-cytochrome c reductase assay using the isolated mitochondrial fraction (The Journal of Biological Chemistry, 279, pp. 8708-8714, 2004). As a result, the compound A inhibited the complex III at 0.9 ng/mL.

[1] = tested on: Cryptococcus neoformans FP1739; test: Antifungal activity, broth microdilution method; assay type: cell-based; settings: minimum inhibitory concentration
Description: (§1) Antifungal activities for the following test fungi were determined by a broth microdilution method (Hikaru Kume and Toshikazu Yamazaki, Clinical Microbiology, Vol. 21, No. 5, pp. 573-580, 1994).

[2] = tested on: Aspergillus fumigatus FP1305; test: Antifungal activity, broth microdilution method; assay type: cell-based; settings: minimum inhibitory concentration
Description: as §1

[3] = tested on: Alternaria alternata AHU9258; test: Antifungal activity, broth microdilution method; assay type: cell-based; settings: minimum inhibitory concentration
Description: as §1

[4] = tested on: Trichophyton rubrum FP596; test: Antifungal activity, broth microdilution method; assay type: cell-based; settings: minimum inhibitory concentration
Description: as §1

[5] = tested on: Trichophyton mentagrophytes FP2103; test: Antifungal activity, broth microdilution method; assay type: cell-based; settings: minimum inhibitory concentration
Description: as §1

[6] = tested on: mouse T lymphoma cell line EL-4; test: Cytotoxicity to EL-4 cells, cell counting kit; assay type: cell-based; settings: 37° C., 72 hours
Description: (§2) Cytotoxicity was evaluated by adding a test drug to mouse T lymphoma cell line EL-4 at various concentrations, incubating the cells in a CO2 incubator at 37° C. for 72 hours, counting the cells using a cell counting kit (Wako Pure Chemical Industries, Ltd.), and calculating IC50 values.

[7] = Cytotoxicity to EL-4 cells, cell counting kit; assay type: cell-based, mouse; settings: mouse, EL-4 mouse T lymphoma cells, 37° C.
Description: as §2

[8] = tested on: dormantfungi present around infections; settings: reported in Mycoses, 46, pp. 505-510, 2003; cited from earlier work

| Compound | concentration at which complex III was inhibited (Complex III) [ng/mL] | MIC [1] [µg/mL] | MIC [2] [µg/mL] | MIC [3] [µg/mL] | MIC [4] [µg/mL] | MIC [5] [µg/mL] | concentrations showing no cytotoxic effect [6] [ng/mL] | IC50 at 72 h [7] [µg/mL] | activity against dormant fungi [8] |
| --- | --- | --- | --- | --- | --- | --- | --- | --- | --- |
| CCC(C)CC(C)CCC1CCCC(c2c(O)c(C3C(O)C(O)C(O)C3O)cn(C)c2=O)O1 (stereo not drawn) [compound A] | 0.9 | 1.3 (≈ 2.78 µM) | 25 (≈ 53.5 µM) | 6.3 (≈ 13.5 µM) | 0.1 (≈ 0.214 µM) | 0.1 (≈ 0.214 µM) | ≤ 3100 | 6.2 (≈ 13.3 µM) | – |
| CN(C/C=C/C#CC(C)(C)C)Cc1cccc2ccccc12 [Terbinafine] | – | – | – | – | – | – | – | – | weak activity |
